From patent publication US20250136581A1, “SUBSTITUTED TRIAZOLE DERIVATIVE, PREPARATION METHOD THEREFOR, PHARMACEUTICAL COMPOSITION THEREOF, AND USE THEREOF” (SHANGHAI SIMR BIOTECHNOLOGY CO., LTD., priority 2021, published 2025) come the findings set out here.

This test concerns the target human α5β3γ2 receptors (α5-GABAA receptor) (Homo sapiens (Human), UniProt P18507+P31644). The test is described as follows: 3H-flunitrazepam competition binding, human α5β3γ2 GABAA receptor. The following applies: HEK293 cell membranes, 1 nM 3H-flunitrazepam; read-out: α5-GABAAR Ki. The method in brief:
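HEK293 membranes stably expressing each human receptor subtype ([…]) competed against 1 nM 3H-flunitrazepam in Tris buffer, 1 h at room temperature; flumazenil defined the low-signal control. Eight-point 4-fold test-compound dilutions; GF/C filtration and scintillation counting gave IC50 by curve fitting, converted to Ki.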
On to `COCc1ccc(-n2nnc(C)c2COc2ccc(N3CCN4CCNC(=O)[C@@H]4C3)nn2)cc1` [Example 161, (S)-8-(6-((1-(4-(Methoxymethyl)phenyl)-4-methyl-1H-1,2,3-triazol-5-yl)methoxy)pyridazin-3-yl)hexahydro-2H-pyrazino[1,2-a]pyrazin-1(6H)-one], for which the Ki amounted to 13.8 nM. Turning to `O=C1CN(c2ccc(OCc3cnnn3-c3ccc(Cl)cc3)nn2)CCN1` [Example 214, 4-(6-((1-(4-Chlorophenyl)-1H-1,2,3-triazol-5-yl)methoxy)pyridazin-3-yl)piperazin-2-one], the Ki stood at 49.2 nM. As to `Cc1nnn(-c2ccc(C(F)F)cc2)c1COc1ccc(N2CCN(c3ccn(C)n3)C(=O)C2)nn1` [Example 112, 4-(6-((1-(4-(Difluoromethyl)phenyl)-4-methyl-1H-1,2,3-triazol-5-yl)methoxy)pyridazin-3-yl)-1-(1-methyl-1H-pyrazol-3-yl)piperazin-2-one], the inhibitory constant (Ki) came to 0.81 nM. Turning to `Cc1nnn(-c2ccc(C(F)F)cc2)c1COc1nnc(N2CCN3CCNC(=O)[C@@H]3C2)c2ncccc12` [Example 206, (S)-8-(5-((1-(4-(Difluoromethyl)phenyl)-4-methyl-1H-1,2,3-triazol-5-yl)methoxy)pyrido[2,3-d]pyridazin-8-yl)hexahydro-2H-pyrazino[1,2-a]pyrazin-1(6H)-one], the Ki was 0.64 nM. Regarding `Cc1nnn(-c2ccc(C(F)F)cc2)c1COc1ccc(N2CC(C(=O)Nc3cnn(C(F)F)c3)C2)nn1` [Example 153, N-(1-(Difluoromethyl)-1H-pyrazol-4-yl)-1-(6-((1-(4-(difluoromethyl)phenyl)-4-methyl-1H-1,2,3-triazol-5-yl)methoxy)pyridazin-3-yl)azetidine-3-carboxamide], the Ki stood at 1.89 nM. “4-(6-((1-(4-(Difluoromethyl)phenyl)-4-methyl-1H-1,2,3-triazol-5-yl)methoxy)pyridin-3-yl)-1-methyl-1,4-diazepan-2-one [Example 17]”: the inhibition constant (Ki) is 4.32 nM.

For the compound `Cc1nnn(-c2ccc(C(F)F)cc2)c1COc1ccc(N2CC(=O)N3CCS(=O)(=O)C[C@@H]3C2)nn1` [Example 176, (S)-8-(6-((1-(4-(Difluoromethyl)phenyl)-4-methyl-1H-1,2,3-triazol-5-yl)methoxy)pyridazin-3-yl)hexahydropyrazino[2,1-c][1,4]thiazin-6(1H)-one 2,2-dioxide], the Ki was 1.34 nM. Turning to `CCNC(=O)C1C2CN(c3ccc(OCc4c(C)nnn4-c4ccc(C(F)F)cc4)nn3)CC21` (stereo not shown) [Example 39, 3-(6-((1-(4-(Difluoromethyl)phenyl)-4-methyl-1H-1,2,3-triazol-5-yl)methoxy)pyridazin-3-yl)-N-ethyl-3-azabicyclo[3.1.0]hexane-6-carboxamide], the Ki amounted to 1.59 nM. For the compound `Cc1nnn(-c2ccc(C(F)F)cc2)c1COc1ccc(N2CC3(CNC(=O)C3)C2)nn1` [Example 87, 2-(6-((1-(4-(Difluoromethyl)phenyl)-4-methyl-1H-1,2,3-triazol-5-yl)methoxy)pyridazin-3-yl)-2,6-diazaspiro[3.4]octan-7-one], the inhibition constant Ki was determined as 3.46 nM. `Cc1nnn(-c2ccc(C(F)F)cc2)c1COc1ccc(N2CCOC3(CCS(=O)(=O)C3)C2)nn1` (stereo not shown) [Example 105, 9-(6-((1-(4-(Difluoromethyl)phenyl)-4-methyl-1H-1,2,3-triazol-5-yl)methoxy)pyridazin-3-yl)-6-oxa-2-thia-9-azaspiro[4.5]decane 2,2-dioxide]: the Ki stood at 1.24 nM. On to `Cc1nnn(-c2ccc(C(F)F)cc2)c1COc1ccc(N2CC(C(=O)Nc3ccccc3)C2)nn1` [Example 47, 1-(6-((1-(4-(Difluoromethyl)phenyl)-4-methyl-1H-1,2,3-triazol-5-yl)methoxy)pyridazin-3-yl)-N-phenylazetidine-3-carboxamide], for which the Ki stood at 1.1 nM. In the case of `O=C1CN(c2ccc(OCc3c(C(F)(F)F)nnn3-c3ccc(C(F)F)cc3)nn2)CCN1` [Example 191, 4-(6-((1-(4-(Difluoromethyl)phenyl)-4-(trifluoromethyl)-1H-1,2,3-triazol-5-yl)methoxy)pyridazin-3-yl)piperazin-2-one], the Ki amounted to 3.27 nM.

As for `Cc1nnn(-c2ccc(C(F)F)cc2)c1COc1ccc(N2CCCN(S(C)(=O)=O)CC2)nn1` [Example 106, 1-(6-((1-(4-(Difluoromethyl)phenyl)-4-methyl-1H-1,2,3-triazol-5-yl)methoxy)pyridazin-3-yl)-4-(methylsulfonyl)-1,4-diazepane], the Ki was found to be 7.39 nM. With `Cc1cc(-c2nnn(-c3ccc(C(F)F)cc3)c2COc2ccc(N3CCNC(=O)C3)nn2)no1` [Example 188, 4-(6-((1-(4-(Difluoromethyl)phenyl)-4-(5-methylisoxazol-3-yl)-1H-1,2,3-triazol-5-yl)methoxy)pyridazin-3-yl)piperazin-2-one], the Ki was determined as 40.6 nM.

Turning to `Cc1nnn(-c2ccc(Cl)cn2)c1COc1ccc(N2CCNC(=O)C2)nn1` [Example 72, 4-(6-((1-(5-Chloropyridin-2-yl)-4-methyl-1H-1,2,3-triazol-5-yl)methoxy)pyridazin-3-yl)piperazin-2-one], the Ki worked out at 0.46 nM. The result for `Cc1nnn(-c2ccc(C(F)F)cc2)c1COc1ccc(N2CCN3c4ccncc4NC(=O)[C@@H]3C2)nn1` [Example 192, (S)-8-(6-((1-(4-(Difluoromethyl)phenyl)-4-methyl-1H-1,2,3-triazol-5-yl)methoxy)pyridazin-3-yl)-7,8,9,10-tetrahydro-5H-pyrazino[1,2-a]pyrido[3,4-e]pyrazin-6(6aH)-one] reads 17.4 nM; that for `Cc1nnn(-c2ccc(C(F)F)cc2)c1COc1ccc(N2CCN3CC(=O)NC(=O)[C@@H]3C2)nn1` [Example 117, (S)-8-(6-((1-(4-(Difluoromethyl)phenyl)-4-methyl-1H-1,2,3-triazol-5-yl)methoxy)pyridazin-3-yl)hexahydro-1H-pyrazino[1,2-a]pyrazin-1,3-(2H)-dione], 4.87 nM. The result for `COCCCN1CCN(c2ccc(OCc3c(C)nnn3-c3ccc(C(F)F)cc3)nn2)CC1=O` [Example 140, 4-(6-((1-(4-(Difluoromethyl)phenyl)-4-methyl-1H-1,2,3-triazol-5-yl)methoxy)pyridazin-3-yl)-1-(3-methoxypropyl)piperazin-2-one] reads 1.41 nM; that for `Cc1nnn(-c2ccc(C(F)F)cc2)c1COc1ccc(N2CC(C(=O)Nc3ccnn3C)C2)nn1` [Example 102, 1-(6-((1-(4-(Difluoromethyl)phenyl)-4-methyl-1H-1,2,3-triazol-5-yl)methoxy)pyridazin-3-yl)-N-(1-methyl-1H-pyrazol-5-yl)azetidine-3-carboxamide], 2.14 nM. Regarding `Cc1nnn(-c2ccc(C#N)cc2)c1COc1ccc(N2CCNC(=O)C2)nn1` [Example 75, 4-(6-((1-(4-Cyanophenyl)-4-methyl-1H-1,2,3-triazol-5-yl)methoxy)pyridazin-3-yl)piperazin-2-one], the Ki amounted to 40.2 nM. The result for `O=C1NCCN2CCN(c3ccc(OCc4c(C(F)F)nnn4-c4ccc(C(F)F)cc4)nn3)C[C@@H]12` [Example 184, (S)-8-(6-((4-(Difluoromethyl)-1-(4-(difluoromethyl)phenyl)-1H-1,2,3-triazol-5-yl)methoxy)pyridazin-3-yl)hexahydro-2H-pyrazino[1,2-a]pyrazin-1(6H)-one] reads 2.53 nM; that for `Cc1nnn(-c2ccc(C(F)F)cc2)c1COc1ccc(N2CCN3CC(C(C)(C)C)NC(=O)[C@@H]3C2)nn1` (single isomer, unassigned) [Example 202], 2.32 nM; that for `Cc1nnn(-c2ccc(C(F)F)cc2)c1COc1ccc(N2CCN[C@H](C#N)C2)nn1` [Example 33, (S)-4-(6-((1-(4-(Difluoromethyl)phenyl)-4-methyl-1H-1,2,3-triazol-5-yl)methoxy)pyridazin-3-yl)piperazine-2-carbonitrile], 3.31 nM. The result for `CCNC(=O)CC1CN(c2ccc(OCc3c(C)nnn3-c3ccc(C(F)F)cc3)nn2)CCO1` (stereo not shown) [Example 63, 2-(4-(6-((1-(4-(Difluoromethyl)phenyl)-4-methyl-1H-1,2,3-triazol-5-yl)methoxy)pyridazin-3-yl)morpholin-2-yl)-N-ethylacetamide] reads 1.49 nM. For `Cc1nnn(-c2ccc(C(F)F)cc2)c1COc1ccc(N2CC3(CCNC3=O)C2)nn1` [Example 86, 2-(6-((1-(4-(Difluoromethyl)phenyl)-4-methyl-1H-1,2,3-triazol-5-yl)methoxy)pyridazin-3-yl)-2,6-diazaspiro[3.4]octan-5-one], the inhibition constant Ki was 8.31 nM.

What is called Ki is a dissociation constant, usually derived from enzyme kinetics or from competition with a known ligand.
